# Source: the supplement of paper PMC4862054
# Assays:
# Details in all cases: 72 h
# CAL-51 [1] = tested on: CAL-51
# Method: (§1)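 Drug sensitivity and resistance testing (DSRT) of breast cancer cell lines in 384-well plates, 5 concentrations in 10-fold dilutions over a compound-specific 10,000-fold range. After 72 h, cytotoxicity was read by CellTox Green fluorescence and viability by CellTiter-Glo luminescence (multiplexed), normalised to DMSO and benzethonium chloride controls. EC50 is the inflection point of the fitted dose-response curve (bottom asymptote free, so it can be relative for partial curves) and is censored at the highest tested concentration. Rows with DSS 0 (no meaningful response) were excluded.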
# MDA-MB-231 = tested on: MDA-MB-231
# Method: as §1
# CAL-51 [2] = tested on: CAL-51; remark: listed apart in the source
# Procedure, shortened: (§2)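 Rows with a drug sensitivity score of zero were dropped, and EC50 was taken from the fitted percent-inhibition dose-response curve, censored at the highest concentration. Data were normalised on each plate to vehicle and a positive kill control and checked by Z'-factor. The assay seeded breast cancer cell lines in 20 µl onto 384-well plates pre-loaded with compound in 5 µl medium for 72 h, then added 2.5 µl CellTiter-Blue for 2 h at 37 °C and read fluorescence at 560/590 nm.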
# MDA-MB-453 = tested on: MDA-MB-453
# Procedure, shortened: as §2
# CAL-85-1 = tested on: CAL-85-1
# Procedure, shortened: as §2
# CAL-148 = tested on: CAL-148
# Procedure, shortened: as §2
# DU-4475 = tested on: DU-4475
# Procedure, shortened: as §2
# HDQ-P1 = tested on: HDQ-P1
# Procedure, shortened: as §2
Compound,"EC50, CellTox Green (CAL-51 [1])","EC50, CellTox Green (MDA-MB-231)","EC50, CellTiter-Blue viability (CAL-51 [2])","EC50, CellTiter-Blue viability (MDA-MB-453)","EC50, CellTiter-Blue viability (CAL-85-1)","EC50, CellTiter-Blue viability (CAL-148)","EC50, CellTiter-Blue viability (DU-4475)","EC50, CellTiter-Blue viability (HDQ-P1)"
CC(=O)O[C@H]1C(=O)[C@@]2(C)[C@H]([C@H](OC(=O)c3ccccc3)[C@]3(O)C[C@H](OC(=O)[C@H](O)[C@@H](NC(=O)c4ccccc4)c4ccccc4)C(C)=C1C3(C)C)[C@]1(OC(C)=O)CO[C@@H]1C[C@@H]2O [Paclitaxel],2.93 nM,8.57 nM,12.2 nM,4.03 nM,7.28 nM,6.75 nM,18.6 nM,1.26 nM
COc1c(C)cnc(Cn2cnc3c(Cl)nc(N)nc32)c1C [BIIB021],758 nM,928 nM,341 nM,64 nM,490 nM,133 nM,143 nM,241 nM
C#Cc1cccc(Nc2ncnc3cc(OC)c(OCCCCCCC(=O)NO)cc23)c1 [CUDC-101],2460 nM,403 nM,3790 nM,168 nM,426 nM,817 nM,1130 nM,213 nM
COC1=C2C[C@@H](C)C[C@H](OC)[C@H](O)[C@@H](C)/C=C(\C)[C@H](OC(N)=O)[C@@H](OC)/C=C\C=C(/C)C(=O)NC(=CC1=O)C2=O [Geldanamycin],8440 nM,4120 nM,535 nM,96.5 nM,270 nM,223 nM,137 nM,81.4 nM
C[C@@]1(C(=O)Nc2ccc(F)nc2)CCCN1c1nc(Nc2cc(C3CC3)n[nH]2)c2cccn2n1,824 nM,1980 nM,1500 nM,314 nM,858 nM,1170 nM,1510 nM,293 nM
COC1=CC(c2cc3ccccc3[nH]2)=N/C1=C\c1[nH]c(C)cc1C [Obatoclax],2640 nM,760 nM,2060 nM,632 nM,982 nM,3150 nM,6650 nM,95.6 nM
